Experimental data taken from patent US20150031668A1, “CHROMAN DERIVATIVES AS TRPM8 INHIBITORS” (AMGEN INC., priority 2013, published 2015).
Counter-ions that a name gives are not always drawn.

The molecules below were run against T1, human TRPM8 (Homo sapiens, UniProt Q7Z2W7) (assay: Luminescence readout assay for measuring intracellular calcium (aequorin, CHO cells expressing human TRPM8; icilin, L-menthol or cold activation)). Conditions: CHO cells expressing human TRPM8, icilin activation (1 μM), aequorin luminescence; read-out: hTRPM8 IC50.
T1 construct: expressed in transfected cells; host or cells: Chinese hamster ovary (CHO) cells, T-REx tetracycline-inducible expression system (Invitrogen); co-transfected with pcDNA3.1 aequorin
Format: cell-based
Summary of the method: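 Activation was by 1 μM icilin, 100 μM L-menthol (test compound 2.5 min ahead) or cold buffer below 10° C (compound 1 min ahead). Calcium rise measured as aequorin luminescence in CHO cells with tetracycline-inducible human TRPM8.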

T1 sequence (Q7Z2W7 whole entry): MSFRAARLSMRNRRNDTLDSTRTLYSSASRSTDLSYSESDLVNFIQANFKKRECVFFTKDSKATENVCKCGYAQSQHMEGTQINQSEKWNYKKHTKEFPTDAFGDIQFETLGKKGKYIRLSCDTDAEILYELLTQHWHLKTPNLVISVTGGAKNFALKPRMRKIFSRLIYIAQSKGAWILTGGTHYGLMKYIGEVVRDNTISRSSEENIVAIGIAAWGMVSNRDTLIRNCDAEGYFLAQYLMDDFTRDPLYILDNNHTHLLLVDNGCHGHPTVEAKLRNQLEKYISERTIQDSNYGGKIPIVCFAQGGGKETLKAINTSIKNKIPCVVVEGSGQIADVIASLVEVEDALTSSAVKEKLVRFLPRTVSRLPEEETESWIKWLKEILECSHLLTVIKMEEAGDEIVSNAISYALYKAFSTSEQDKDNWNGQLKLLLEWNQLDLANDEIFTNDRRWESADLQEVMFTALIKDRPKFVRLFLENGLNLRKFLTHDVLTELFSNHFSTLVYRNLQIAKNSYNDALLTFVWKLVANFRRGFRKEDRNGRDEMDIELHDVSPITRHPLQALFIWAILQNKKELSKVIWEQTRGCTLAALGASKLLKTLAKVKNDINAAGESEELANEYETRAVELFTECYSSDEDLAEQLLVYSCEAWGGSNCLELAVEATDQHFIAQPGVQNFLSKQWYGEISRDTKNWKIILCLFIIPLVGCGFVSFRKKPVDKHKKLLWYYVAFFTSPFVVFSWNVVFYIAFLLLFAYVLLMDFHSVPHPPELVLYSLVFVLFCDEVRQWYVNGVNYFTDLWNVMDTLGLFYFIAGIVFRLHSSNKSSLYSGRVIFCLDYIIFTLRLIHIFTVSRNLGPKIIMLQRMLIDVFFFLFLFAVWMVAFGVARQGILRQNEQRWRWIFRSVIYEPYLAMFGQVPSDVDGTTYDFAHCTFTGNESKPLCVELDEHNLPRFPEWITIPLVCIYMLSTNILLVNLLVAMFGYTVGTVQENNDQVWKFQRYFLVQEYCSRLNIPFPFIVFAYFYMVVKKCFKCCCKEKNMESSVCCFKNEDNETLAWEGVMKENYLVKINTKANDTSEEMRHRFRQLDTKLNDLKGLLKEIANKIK

| IC50 | SMILES |
| --- | --- |
| 45 nM | COC(=O)c1cc2ccc(C(=O)N[C@]3(c4ccc(OC(F)(F)F)c(F)c4)CCOc4cccnc43)cc2[nH]1 [Example 209, (S)-methyl 6-((4-(3-fluoro-4-(trifluoromethoxy)phenyl)-3,4-dihydro-2H-pyrano[3,2-b]pyridin-4-yl)carbamoyl)-1H-indole-2-carboxylate] |
| 12 nM | N#Cc1ccc(C(=O)N[C@]2(c3ccc(OC(F)(F)F)c(F)c3)CCOc3cccnc32)nc1 [Example 171, (S)-5-cyano-N-(4-(3-fluoro-4-(trifluoromethoxy)phenyl)-3,4-dihydro-2H-pyrano[3,2-b]pyridin-4-yl) picolinamide] |
| 883 nM | O=C(NC1(c2ccc(C(F)(F)F)nc2)CCOc2cccnc21)c1ccccc1 (centres unmarked) [Example 13, N-(4-(6-(trifluoromethyl)pyridin-3-yl)-3,4-dihydro-2H-pyrano[3,2-b]pyridin-4-yl)benzamide] |
| 17 nM | Cc1cc(C(=O)N[C@]2(c3ccc(C(F)(F)F)c(F)c3)CCOc3cccnc32)ccc1C(=O)O [Example 287, (S)-4-((4-(3-fluoro-4-(trifluoromethyl)phenyl)-3,4-dihydro-2H-pyrano[3,2-b]pyridin-4-yl)carbamoyl)-2-methylbenzoic acid] |
| 88 nM | COc1cc(-c2ccc([C@@]3(NC(=O)c4ccc(F)cc4)CCOc4cccnc43)cc2)ccn1 [Example 146, (S)-4-fluoro-N-(4-(4-(2-methoxypyridin-4-yl)phenyl)-3,4-dihydro-2H-pyrano[3,2-b]pyridin-4-yl)benzamide] |
| 43 nM | O=C(N[C@]1(c2ccc(C(F)(F)F)cc2)CCOc2cccnc21)c1ccn2ccnc2c1 [Example 49, (S)-N-(4-(4-(trifluoromethyl)phenyl)-3,4-dihydro-2H-pyrano[3,2-b]pyridin-4-yl)imidazo[1,2-a]pyridine-7-carboxamide] |
| 163 nM | O=C(N[C@]1(c2ccc(OC(F)(F)F)c(F)c2)CCOc2cccnc21)c1cc(Cl)on1 [Example 200, (S)-5-chloro-N-(4-(3-fluoro-4-(trifluoromethoxy)phenyl)-3,4-dihydro-2H-pyrano[3,2-b]pyridin-4-yl) isoxazole-3-carboxainide] |
| 70 nM | O=C(N[C@]1(c2ccc(-c3ccoc3)cc2)CCOc2cccnc21)c1ccc(F)cc1 [Example 145, (S)-4-fluoro-N-(4-(4-(furan-3-yl)phenyl)-3,4-dihydro-2H-pyrano[3,2-b]pyridin-4-yl)benzamide] |
| 23 nM | O=C(NC1(c2ccc(Cl)c(Cl)c2)CCOc2cccnc21)c1ccc2[nH]c(=O)oc2c1 (centres unmarked) [Example 24, N-(4-(3,4-dichlorophenyl)-3,4-dihydro-2H-pyrano[3,2-b]pyridin-4-yl)-2-oxo-2,3-dihydrobenzo[d]oxazole-6-carboxamide] |
| 2230 nM | O=C(N[C@]1(c2ccc(OC(F)(F)F)c(F)c2)CCOc2nccnc21)c1ccc(=O)[nH]c1 [Example 164, (S)-N-(8-(3-fluoro-4-(trifluoromethoxy)phenyl)-7,8-dihydro-6H-pyrano[2,3-b]pyrazin-8-yl)-6-oxo-1,6-dihydropyridine-3-carboxamide] |
| 3340 nM | O=C(O)c1ccc(S(=O)(=O)N[C@]2(c3ccc(OC(F)(F)F)c(F)c3)CCOc3cccnc32)cc1 [Example 317, (S)-4-(N-(4-(3-fluoro-4-(trifluoro-methoxy)phenyl)-3,4-dihydro-2H-pyrano[3,2-b]pyridin-4-yl)sulfamoyl) benzoic acid] |
| 34 nM | O=C(NC1(c2ccc(OC(F)(F)F)c(F)c2)CCOc2cccnc21)c1ccc(F)cc1 (centres unmarked) [Example 6, 4-fluoro-N-(4-(3-fluoro-4-(trifluoromethoxy)phenyl)-3,4-dihydro-2H-pyrano[3,2-b]pyridin-4-yl)benzamide] |
| 6 nM | Nc1ccc(C(=O)N[C@]2(c3ccc(OC(F)(F)F)c(F)c3)CCOc3cccnc32)nc1 [Example 284, (S)-5-amino-N-(4-(3-fluoro-4-(trifluoromethoxy)phenyl)-3,4-dihydro-2H-pyrano[3,2-b]pyridin-4-yl)picolinamide] |

Second part, the molecule before the results:

| SMILES | IC50 |
| --- | --- |
| Cn1ncc2cc(C(=O)N[C@]3(c4ccc(C(F)(F)F)cc4)CCOc4cccnc43)ccc21 [Example 44, (S)-1-methyl-N-(4-(4-(trifluoromethyl)phenyl)-3,4-dihydro-2H-pyrano[3,2-b]pyridin-4-yl)-1H-indazole-5-carboxamide] | 8 nM |
| CCOc1cnc(-c2ccc([C@@]3(NC(=O)c4ccc(F)cc4)CCOc4cccnc43)cc2)cn1 [Example 117, (S)-N-(4-(4-(5-ethoxypyrazin-2-yl)phenyl)-3,4-dihydro-2H-pyrano[3,2-b]pyridin-4-yl)-4-fluorobenzamide] | 73.7 nM |
| O=C(N[C@]1(c2ccc(OC(F)(F)F)c(F)c2)CCOc2cccnc21)c1c[nH]c(C(=O)O)c1 [Example 320, (S)-4-((4-(3-fluoro-4-(trifluoro-methoxy)phenyl)-3,4-dihydro-2H-pyrano[3,2-b]pyridin-4-yl)carbamoyl)-1H-pyrrole-2-carboxylic acid] | 3700 nM |
| COc1cccc(-c2ccc([C@@]3(NC(=O)c4ccc(F)cc4)CCOc4cccnc43)cc2)c1O [Example 135, (S)-4-fluoro-N-(4-(2′-hydroxy-3′-methoxy-[1,1′-biphenyl]-4-yl)-3,4-dihydro-2H-pyrano[3,2-b]pyridin-4-yl)benzamide] | 113 nM |
| COC(=O)c1ccc(C(=O)N[C@]2(c3ccc(OC(F)(F)F)c(F)c3)CCOc3cccnc32)n1C [Example 305, (S)-methyl 5-((4-(3-fluoro-4-(trifluoromethoxy)phenyl)-3,4-dihydro-2H-pyrano[3,2-b]pyridin-4-yl)carbamoyl)-1-methyl-1H-pyrrole-2-carboxylate] | 15 nM |
| Cn1cc(C(=O)O)cc1C(=O)N[C@]1(c2ccc(OC(F)(F)F)c(F)c2)CCOc2cccnc21 [Example 335, (S)-5-((4-(3-fluoro-4-(trifluoromethoxy)phenyl)-3,4-dihydro-2H-pyrano[3,2-b]pyridin-4-yl)carbamoyl)-1-methyl-1H-pyrrole-3-carboxylic acid] | 51 nM |
| CN(C)C(=O)c1ccc(-c2ccc([C@@]3(NC(=O)c4ccc(F)cc4)CCOc4cccnc43)cc2)cc1 [Example 137, (S)-4′-(4-(4-fluorobcnzamido)-3,4-dihydro-2H-pyrano[3,2-b]pyridin-4-yl)-N,N-dimethyl-[1,1′-biphenyl]-4-carboxamide] | 1520 nM |
| O=C(N[C@]1(c2ccc(OC(F)(F)F)c(F)c2)CCOc2cccnc21)c1ccc(C(=O)O)c(F)c1 [Example 331, (S)-2-fluoro-4-((4-(3-fluoro-4-(trifluoromethoxy)phenyl)-3,4-dihydro-2H-pyrano[3,2-b]pyridin-4-yl)carbamoyl) benzoic acid] | 34 nM |
| COc1ccc(C(=O)N[C@]2(c3ccc(OC(F)(F)F)c(F)c3)CCOc3cccnc32)cc1C(=O)O [Example 315, (S)-5-((4-(3-fluoro-4-(trifluoromethoxy)phenyl)-3,4-dihydro-2H-pyrano[3,2-b]pyridin-4-yl)carbamoyl)-2-methoxybenzoic acid] | 834 nM |
| O=C(N[C@]1(c2ccc(-c3cccc(N4CCOCC4)c3)cc2)CCOc2cccnc21)c1ccc(F)cc1 [Example 142, (S)-4-fluoro-N-(4-(3′-morpholino-[1,1′-biphenyl]-4-yl)-3,4-dihydro-2H-pyrano[3,2-b]pyridin-4-yl)benzamide] | 336 nM |
| O=C(N[C@]1(c2ccc(OC(F)(F)F)cc2)CCOc2cccnc21)c1cncs1 [Example 233, (S)-N-(4-(4-(trifluoromethoxy)phenyl)-3,4-dihydro-2H-pyrano[3,2-b]pyridin-4-yl)thiazole-5-carboxamide formate] | 222 nM |
| CNC(=O)c1ccc(C(=O)N[C@]2(c3ccc(OC(F)(F)F)c(F)c3)CCOc3cccnc32)cn1 [Example 63, (S)-N5-(4-(3-fluoro-4-(trifluoromethoxy)phenyl)-3,4-dihydro-2H-pyrano[3,2-b]pyridin-4-yl)-N2-methylpyridine-2,5-dicarboxamide] | 19 nM |
| O=C(N[C@]1(c2ccc(OC(F)(F)F)cc2)CCOc2cccnc21)c1nccc2ccccc12 [Example 247, (S)-N-(4-(4-(trifluoromethoxy)phenyl)-3,4-dihydro-2H-pyrano[3,2-b]pyridin-4-yl)isoquinoline-1-carboxamide formate] | 30 nM |
| Cc1nnc(-c2cccc(-c3ccc([C@@]4(NC(=O)c5ccc(F)cc5)CCOc5cccnc54)cc3)c2)o1 [Example 150, (S)-4-fluoro-N-(4-(3′-(5-methyl-1,3,4-oxadiazol-2-yl)-[1,1′-biphenyl]-4-yl)-3,4-dihydro-2H-pyrano[3,2-b]pyridin-4-yl)benzamide] | 1190 nM |
| CC(=O)Nc1cc(C(=O)N[C@]2(c3ccc(OC(F)(F)F)c(F)c3)CCOc3cccnc32)ccc1C(=O)O [Example 323, (S)-2-acetamido-4-((4-(3-fluoro-4-(trifluoro-methoxy)phenyl)-3,4-dihydro-2H-pyrano[3,2-b]pyridin-4-yl)carbamoyl) benzoic acid] | 316 nM |
| O=C(N[C@]1(c2ccc(OC(F)(F)F)cc2)CCOc2cccnc21)c1csc2ccccc12 [Example 268, (S)-N-(4-(4-(trifluoromethoxy)phenyl)-3,4-dihydro-2H-pyrano[3,2-b]pyridin-4-yl) benzo[b]thiophene-3-carboxamide formate] | 71 nM |
